Where a name gives a salt, the structure may show the parent alone.
Key:
[1] = molecular target: T1, human GPR4 (Homo sapiens (Human), UniProt P46093); assay: Human GPR4 binding assay ([3H]4 radioligand, membranes of 300.19 cells expressing human GPR4)
Method: a) Human GPR4 Binding Assay
(§1) Cells were grown in T175 flasks to a density of about 1×10^6 cells/mL in growth medium. The cells were harvested by centrifugation (3000 rpm for 30 minutes at 4° C.) and the pellet resuspended in ice cold buffer A (20 mM HEPES pH 7.8, 10 mM EDTA, 100 mM NaCl, 1 tab/40 mL protease inhibitor complete). […] The homogenate was centrifuged at 18000 rpm for 50 min at 4° C. and the membrane protein pellet resuspended in cold buffer A using the Polytron (2×20 seconds). The protein concentration is determined using the Bio Rad Protein Assay and human IgG as standard. The volume of the membrane protein suspension is adjusted to a final concentration of about 2 mg protein/mL. The suspension is then once again homogenized (Polytron) on ice at 25000 rpm for 20 seconds before being aliquoted and stored at −80° C.
(§2) Radio Ligand Binding Assay: Serial dilutions of compounds (stock in 10 mM DMSO) are prepared by first diluting the compounds in DMSO followed by a 1:50 dilution into assay buffer (10 mM HEPES, pH 8.0, 100 mM NaCl, 5 mM MgCl2, 1 mM CaCl2, 0.5% fatty acid-free BSA, 0.05% Tween-20). […] The desired amount of membranes (20 μg/well) is diluted with assay buffer. […] 100 μL of the membrane-suspension is added and the plate stirred for 60 minutes. […] The filter plate is washed 5 times with ice-cold wash buffer, dried and sealed at the bottom. Then 20 μL of Microscint 40 is added into each well and the top of the plate is sealed. Finally the plate is counted for 2 min/well in a TopCount NXT instrument (Packard Instruments). The data are analyzed using the GraphPad Prism™ software.

[2] = molecular target: T1, human GPR4; assay: Human GPR4 binding assay with additional human serum albumin (4% HSA); settings: binding assay with 4% HSA
Method: as §1, §2
In a similar manner, a binding assay with additional human serum albumin (4% HSA) has been established.

[3] = molecular target: T1, human GPR4; assay: Cell-based assay for human GPR4 activity (pH-induced cAMP formation, HTRF, HeLa cells); settings: HeLa cells stably expressing human GPR4, pH-induced cAMP
Method: b) Cell-Based Assay for Human GPR4 Activity
(§3) HeLa cells stably expressing human GPR4 were established by transfecting the cells with a construct containing the human GPR4 coding sequence. The cells were grown in Dulbecco's Modified Eagle Medium (DMEM)/HAM's tissue culture medium F12 (HAM's F12) supplemented with 10% fetal calf serum (FCS), 100 u/ml penicillin, 100 μg/ml streptomycin and 400 μg/ml G418 and 10 mM Hepes pH 8.0. pH-induced formation of cAMP was determined using the homogeneous time resolved fluorescence (HTRF) technology as provided by CisBio Inc. The cells were seeded in 384-well plates and cultured for 24 hours at 37° C., 5% CO2 before performing the assay. Medium was removed and 10 μl buffer A (Hepes buffered saline (HBS), 10 mM Hepes, pH 8, 2 mM 3-Isobutyl-1-methylxanthin (IBMX)) was added. For compound testing, buffer A with 2× concentrated compounds was used. Cells were incubated for 15 min at room temperature. 10 μl buffer B (HBS, 30 mM Hepes, specific pH) was added to reach the appropriate final pH for stimulation (see below) and incubation was continued for 15 min at room temperature. […] HBS: 130 mM NaCl, 0.9 mM NaH2 PO4, 5.4 mM KCl, 0.8 mM MgSO4, CaCl2 1.8 mM, 25 mM glucose, 10-30 mM Hepes. Adjustment of HBS buffers:
(§4) Compounds were diluted from fresh stock solutions at 10 mM in DMSO to 2 mM and then used for serial dilutions in DMSO.

[4] = molecular target: mouse GPR4 (Mus musculus (Mouse), UniProt Q8BUD0); assay: Mouse GPR4 cAMP assay; type: cell-based
Chain of mouse GPR4 (Q8BUD0 whole entry): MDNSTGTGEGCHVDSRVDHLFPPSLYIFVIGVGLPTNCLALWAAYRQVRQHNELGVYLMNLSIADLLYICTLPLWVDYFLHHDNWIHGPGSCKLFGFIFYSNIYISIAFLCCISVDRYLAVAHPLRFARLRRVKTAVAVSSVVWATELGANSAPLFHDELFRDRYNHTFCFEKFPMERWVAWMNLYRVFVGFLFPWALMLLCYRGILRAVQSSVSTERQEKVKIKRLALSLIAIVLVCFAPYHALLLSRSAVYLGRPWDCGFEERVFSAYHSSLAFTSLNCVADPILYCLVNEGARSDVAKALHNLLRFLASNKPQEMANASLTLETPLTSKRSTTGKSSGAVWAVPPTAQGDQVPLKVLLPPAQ
Method: as §3, §4
(§5) In a similar manner, assays for the mouse (m) and rat (r) GPR4 receptors have been established.

[5] = molecular target: rat GPR4 (Rattus norvegicus (Rat), UniProt Q4KLH9); assay: Rat GPR4 cAMP assay; type: cell-based; settings: read-out: r cAMP IC50
Chain of rat GPR4 (Q4KLH9 whole entry): as the sequence (Q8BUD0 whole entry) above, with G8W, H51R, S339T counted along it
Method: as §3, §4, §5

[6] = molecular target: Human H3 (Homo sapiens (Human), UniProt Q9Y5N1); assay: Human H3 binding assay (SPA, [3H]-R-alpha-Methylhistamine); settings: 3 nM [3H]-R-alpha-Methylhistamine
Chain of Human H3 (Q9Y5N1 whole entry): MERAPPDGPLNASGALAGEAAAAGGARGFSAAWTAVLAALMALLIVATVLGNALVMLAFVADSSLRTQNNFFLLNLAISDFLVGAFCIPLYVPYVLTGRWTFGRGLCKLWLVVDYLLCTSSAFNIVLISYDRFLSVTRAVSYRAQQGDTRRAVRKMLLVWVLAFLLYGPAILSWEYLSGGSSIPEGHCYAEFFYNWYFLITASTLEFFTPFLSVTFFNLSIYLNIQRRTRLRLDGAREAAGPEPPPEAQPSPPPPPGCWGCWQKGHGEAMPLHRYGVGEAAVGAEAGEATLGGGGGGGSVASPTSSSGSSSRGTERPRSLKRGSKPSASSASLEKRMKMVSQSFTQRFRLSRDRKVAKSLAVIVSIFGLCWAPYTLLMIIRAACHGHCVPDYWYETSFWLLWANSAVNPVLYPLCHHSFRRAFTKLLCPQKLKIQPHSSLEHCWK
Method: c) Human H3 Binding Assay
The Scintillation Proximity Binding Assay (SPA) assay was performed in a final volume of 50 μL per well in a 384-well polystyrene plate.
The final concentration of the radioligand was 3 nM. • 20 μL of a beads (PVT-WGA type A) and membranes mixed suspension in assay buffer, in order to get a final concentration of 10 μg/well of membranes and 200 μg/well of beads. As an example, 1471 μL membranes (Conc.: 5.1 mg/mL) and 1500 μL of bead suspension (Conc.: 100 mg/mL) are diluted to a final volume of 15 mL of assay buffer.
The plates were sealed and shaken at room temperature, then allowed to stand at room temperature for at least 1 hour. The plates were counted using a Perkin Elmer TopCount reader, each well being counted for 1 minute.

[7] = radioligand [3H]4 (example 39), membranes of 300.19 cells expressing human GPR4

T1 sequence (P46093 whole entry): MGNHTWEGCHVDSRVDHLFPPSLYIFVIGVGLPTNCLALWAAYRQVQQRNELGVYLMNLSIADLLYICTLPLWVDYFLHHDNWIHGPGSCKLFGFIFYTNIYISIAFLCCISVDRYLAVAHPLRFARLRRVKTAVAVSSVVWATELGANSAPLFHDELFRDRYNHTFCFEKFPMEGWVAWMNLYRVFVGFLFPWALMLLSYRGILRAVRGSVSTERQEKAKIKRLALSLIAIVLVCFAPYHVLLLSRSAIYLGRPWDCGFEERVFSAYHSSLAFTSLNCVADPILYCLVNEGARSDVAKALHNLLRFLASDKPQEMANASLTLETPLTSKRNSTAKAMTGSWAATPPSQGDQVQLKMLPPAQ

IC50 [1, 7] | IC50 [2] | IC50 [3] | IC50 [4] | IC50 [5] | IC50 [6] | IC50 [1] | IC50 ([2]; read-out: GPR4 4% HSA IC50) | SMILES
44 nM | 49 nM | 31 nM | 124 nM | 338 nM | > 30 µM | – | – | CCc1nn2c(C)cc(C)nc2c1Cc1ccc(/C=C/CC2(O)CCNCC2)cc1 [Example 3, 4-{(E)-3-[4-(2-Ethyl-5,7-dimethyl-pyrazolo[1,5-a]pyrimidin-3-ylmethyl)-phenyl]-allyl}-piperidin-4-ol]
15 nM | 11 nM | 17 nM | 70 nM | 162 nM | > 30 µM | – | – | CCc1nn2c(C)cc(C)nc2c1Cc1ccc(/C=C/C[C@]2(O)CCN[C@@H](C)C2)cc1 [Example 5, (2S,4S)-4-{(E)-3-[4-(2-Ethyl-5,7-dimethyl-pyrazolo[1,5-a]pyrimidin-3-ylmethyl)-phenyl]-allyl}-2-methyl-piperidin-4-ol]
– | 56 nM | 33 nM | 253 nM | 1720 nM | > 30 µM | 34 nM | – | CCc1nn2c(C)cc(C)nc2c1Cc1ccc(/C=C/CC2(O)CCN(C(=O)CNC)CC2)cc1 [Example 7, 1-(4-{(E)-3-[4-(2-Ethyl-5,7-dimethyl-pyrazolo[1,5-a]pyrimidin-3-ylmethyl)-phenyl]-allyl}-4-hydroxy-piperidin-1-yl)-2-methylamino-ethanone hydrochloride]
33 nM | 93 nM | 54 nM | 401 nM | 1340 nM | > 30 µM | – | – | CCc1nn2c(C)cc(C)nc2c1Cc1ccc(/C=C/CN2CCN[C@H](COC)C2)cc1 [Example 10, 2-Ethyl-3-{4-[(E)-3-((S)-3-methoxymethyl-piperazin-1-yl)-propenyl]-benzyl}-5,7-dimethyl-pyrazolo[1,5-a]pyrimidine]
– | 7 nM | 68 nM | 388 nM | 1690 nM | 4.9 µM | 7 nM | – | CCc1nn2c(C)cc(C)nc2c1Cc1ccc(/C=C/CN2CCN[C@@H](CN(C)C)C2)cc1 [Example 13, ((S)-4-{(E)-3-[4-(2-Ethyl-5,7-dimethyl-pyrazolo[1,5-a]pyrimidin-3-ylmethyl)-phenyl]-allyl}-piperazin-2-ylmethyl)-dimethyl-amine trihydrochloride]
10 nM | 12 nM | 55 nM | 127 nM | 691 nM | > 30 µM | – | – | CCc1nn2c(C)cc(C)nc2c1Cc1ccc(/C=C/CN2CCNCC2)cc1 [Example 14, 2-Ethyl-5,7-dimethyl-3-[4-((E)-3-piperazin-1-yl-propenyl)-benzyl]-pyrazolo[1,5-a]pyrimidine]
51 nM | 44 nM | 56 nM | 216 nM | 634 nM | 26 µM | – | – | CCc1nn2c(C)cc(C)nc2c1Cc1ccc(/C=C/CN2CCN(C(=O)[C@H](CO)NC)CC2)cc1 [Example 15, (S)-1-(4-{(E)-3-[4-(2-Ethyl-5,7-dimethyl-pyrazolo[1,5-a]pyrimidin-3-ylmethyl)-phenyl]-allyl}-piperazin-1-yl)-3-hydroxy-2-methylamino-propan-1-one]
35 nM | 120 nM | 41 nM | 200 nM | 837 nM | > 30 µM | – | – | CCc1nn2c(C)cc(C)nc2c1Cc1ccc(/C=C/CN2CCN(C(=O)[C@H]3NCC[C@H]3O)CC2)cc1 [Example 16, (4-{(E)-3-[4-(2-Ethyl-5,7-dimethyl-pyrazolo[1,5-a]pyrimidin-3-ylmethyl)-phenyl]-allyl}-piperazin-1-yl)-((2S,3R)-3-hydroxy-pyrrolidin-2-yl)-methanone dihydrochloride]
81 nM | – | 43 nM | 1280 nM | 1800 nM | > 30 µM | – | 67 nM | CCc1nn2c(C)cc(C)nc2c1Cc1ccc(/C=C/C(=O)N2CCNCC2)cc1 [Example 18, (E)-3-[4-(2-Ethyl-5,7-dimethyl-pyrazolo[1,5-a]pyrimidin-3-ylmethyl)-phenyl]-1-piperazin-1-yl-propenone hydrochloride]

— patent publication US8748435B2, “Pyrazolo pyrimidine derivatives” (Novartis AG, priority 2011, dated 2014)
